Read-outs that look alike come from different tables or passages of the source.
What was measured:
HDAC2 = molecular target: T1, HDAC2 (Homo sapiens, UniProt Q92769); test: Inhibition of HDAC enzymes, 12-point concentration-response; assay type: biochemical
T1 construct: purchased BPS 50002
Method: (§1) Compounds were tested in a 12-point concentration-response format against 11 HDAC enzymes as outlined in Table 2A. Test compounds were diluted in 100% DMSO using 3-fold dilution steps. The final compound concentration in the assay ranged from 100 μM to 0.565 nM or as requested. Compounds were tested in a single well for each dilution, and the final concentration of DMSO in all assays was kept at 1%. Reference compounds were tested in an identical manner.

HDAC3 = molecular target: T2, HDAC3 (Homo sapiens, UniProt O15379); test: as above; assay type: biochemical; conditions: for IC50: HDAC3
T2 construct: purchased BPS 50003
Method: as §1

HDAC5 = molecular target: T3, HDAC5 (Homo sapiens, UniProt Q9UQL6); test: as above; assay type: biochemical
T3 construct: purchased BPS 50045
Method: as §1

HDAC7 = molecular target: T4, HDAC7 (Homo sapiens, UniProt Q8WUI4); test: as above; assay type: biochemical
T4 construct: made in house
Method: as §1

A2780cp = test: CellTiter-Glo cell viability assay; assay type: cell-based, Human; conditions: for IC50: A2780C/P, A2780cp, OVARIAN, Platinum res-Human Ovarian, 72 hours
Method: (§2) Cell viability in the presence of varying concentrations of the above listed compounds at different time points was used to assess cytotoxicity and the effect of the compounds on cell proliferation.
(§3) Cell viability was measured by the CellTiter-Glo® cell viability assay from Promega (Madison, Wis.). The CellTiter-Glo® Luminescent Cell Viability Assay is a homogeneous method to determine the number of viable cells in culture based on quantitation of the ATP present, which signals the presence of metabolically active cells. Following treatment, CellTiter-Glo® is added to treatment wells and incubated at 37° C. luminescence values were measured at using a Molecular Devices Spectramax microplate reader
(§4) Cells were grown to 70% confluency, trypsinized, counted, and seeded in 96 well flat-bottom plates at a final concentration of 2.5×10^3-5×10^3 cells/well (Day 0). Cells were allowed to incubate in growth media for 24 hours. Treatment with the test agents or standard agents began on Day 1 and continued for 72 hours. At the 72-hour timepoint, treatment containing media was removed. Viable cell numbers are quantified by the CellTiter-Glo® cell viability assay as described above. Results from these studies were used to calculate an IC50 value (concentration of drug that inhibits cell growth by 50 percent of control) for each compound.
(§5) For single agent and combination studies, data from each experiment was collected and expressed as % Cell Growth using the following calculation: % Cell Growth=(ftest/fvehicle)×100
(§6) Where test is the fluorescence of the tested sample, and fvehicle is the fluorescence of the vehicle in which the drug is dissolved. Dose response graphs and IC50 values were generated using Prism 6 software (GraphPad) using the following equation: Y=(Top-Bottom)/(1+10^((logIC^50^-X)-HillSlope))

A2780 = test: CellTiter-Glo cell viability assay; assay type: cell-based, Human; conditions: for IC50: A2780, OVARIAN, Human Ovarian, 72 hours
Method: as §2, §3, §4, §5, §6

BIN-67 = test: CellTiter-Glo cell viability assay; assay type: cell-based, Human; conditions: for IC50: BIN-67, OVARIAN, Human Small Cell Carcinoma of the Ovary, 72 hours
Method: as §2, §3, §4, §5, §6

COV434 = test: CellTiter-Glo cell viability assay; assay type: cell-based, Human; conditions: for IC50: COV434, OVARIAN, Human Ovarian Granulosa, 72 hours
Method: as §2, §3, §4, §5, §6

IGROV-1 = test: CellTiter-Glo cell viability assay; assay type: cell-based, Human; conditions: for IC50: IGROV-1, OVARIAN, Human Ovarian Adenocarcinoma, 72 hours
Method: as §2, §3, §4, §5, §6

OVCAR-3 = test: CellTiter-Glo cell viability assay; assay type: cell-based, Human; conditions: for IC50: OVCAR-3, OVARIAN, Human Ovarian Carcinoma, 72 hours
Method: as §2, §3, §4, §5, §6

OVCAR-8 = test: CellTiter-Glo cell viability assay; assay type: cell-based, Human; conditions: for IC50: OVCAR-8, OVARIAN, Human Ovarian Carcinoma, 72 hours
Method: as §2, §3, §4, §5, §6

SCCOHT-1 = test: CellTiter-Glo cell viability assay; assay type: cell-based, Human; conditions: for IC50: SCCOHT-1, OVARIAN, Human Small Cell Carcinoma of the Ovary, 72 hours
Method: as §2, §3, §4, §5, §6

SKOV-3 = test: CellTiter-Glo cell viability assay; assay type: cell-based, Human; conditions: for IC50: SK-OV-3, SKOV-3, OVARIAN, Human Ovarian Carcinoma, 72 hours
Method: as §2, §3, §4, §5, §6

ASPC-1 = test: CellTiter-Glo cell viability assay; assay type: cell-based; conditions: for IC50: Homo sapiens, ASPC1, ASPC-1, PANCREAS, Pancreatic, 72 hours
In short: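 Luminescent ATP quantitation served as the viability measure after a 72-hour treatment begun one day post-seeding. Growth was normalised to vehicle to derive IC50.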

4T1 = test: CellTiter-Glo cell viability assay; assay type: cell-based, Murine; conditions: for IC50: Mus musculus, 4T1, BREAST, Murine Breast Tumor, 72 hours
Method: as §2, §3, §4, §5, §6

CT26 = test: CellTiter-Glo cell viability assay; assay type: cell-based, Murine; conditions: for IC50: Mus musculus, CT26, MURINE COLON, Colon, 72 hours
Method: as §2, §3, §4, §5, §6

GL261 = test: CellTiter-Glo cell viability assay; assay type: cell-based, Murine; conditions: for IC50: Mus musculus, GL261, MURINE BRAIN, Murine Glioma, 72 hours
Method: as §2, §3, §4, §5, §6

L1210 = test: CellTiter-Glo cell viability assay; assay type: cell-based, Murine; conditions: for IC50: Mus musculus, L1210, HEMATOPIETIC, Murine Leukemia, 72 hours
Method: as §2, §3, §4, §5, §6

MC38 = test: CellTiter-Glo cell viability assay; assay type: cell-based, Murine; conditions: for IC50: Mus musculus, MC-38, MC38, MURINE COLON, Colon, 72 hours
Method: as §2, §3, §4, §5, §6

[1] = Pharmacokinetics studies in mice; assay type: in vivo; conditions: for AUC(0-inf) / AUC(0-t) / Cmax / Tmax / half-life / bioavailability / Vd/F: mouse, in vivo; for Vd/F: read-out: Vz/Fobs
Description: Volume of distribution is one of the most important pharmacokinetic properties of a drug candidate and for an anticancer drug can result in increased drug distribution to the tumor.

[2] = IV-1 mg/kg, 5% Ethanol 5% Cremophor 90% Saline
[3] = PO-5 mg/kg, 10% Ethanol 90% Labrasol
[4] = SC-5 mg/kg, 5% Ethanol 5% Cremophor 90% Saline

T2 sequence (O15379 whole entry): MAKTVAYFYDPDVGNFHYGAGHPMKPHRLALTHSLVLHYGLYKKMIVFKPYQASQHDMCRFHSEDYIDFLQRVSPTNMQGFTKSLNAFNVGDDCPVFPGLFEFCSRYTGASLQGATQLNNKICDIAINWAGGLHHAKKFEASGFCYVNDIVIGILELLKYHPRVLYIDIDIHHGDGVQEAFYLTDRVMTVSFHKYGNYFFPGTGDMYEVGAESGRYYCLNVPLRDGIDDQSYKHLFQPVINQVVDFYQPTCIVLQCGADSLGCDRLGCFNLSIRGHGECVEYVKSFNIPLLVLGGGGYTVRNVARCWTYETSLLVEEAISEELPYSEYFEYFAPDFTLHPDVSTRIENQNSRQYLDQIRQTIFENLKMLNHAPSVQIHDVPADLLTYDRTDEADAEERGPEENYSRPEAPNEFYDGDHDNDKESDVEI
T2 sequence (Q9Y618 395-489 partner limits assumed): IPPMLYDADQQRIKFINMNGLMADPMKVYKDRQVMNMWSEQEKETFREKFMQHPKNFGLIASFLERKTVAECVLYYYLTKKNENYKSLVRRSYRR
T3 sequence (Q9UQL6 whole entry): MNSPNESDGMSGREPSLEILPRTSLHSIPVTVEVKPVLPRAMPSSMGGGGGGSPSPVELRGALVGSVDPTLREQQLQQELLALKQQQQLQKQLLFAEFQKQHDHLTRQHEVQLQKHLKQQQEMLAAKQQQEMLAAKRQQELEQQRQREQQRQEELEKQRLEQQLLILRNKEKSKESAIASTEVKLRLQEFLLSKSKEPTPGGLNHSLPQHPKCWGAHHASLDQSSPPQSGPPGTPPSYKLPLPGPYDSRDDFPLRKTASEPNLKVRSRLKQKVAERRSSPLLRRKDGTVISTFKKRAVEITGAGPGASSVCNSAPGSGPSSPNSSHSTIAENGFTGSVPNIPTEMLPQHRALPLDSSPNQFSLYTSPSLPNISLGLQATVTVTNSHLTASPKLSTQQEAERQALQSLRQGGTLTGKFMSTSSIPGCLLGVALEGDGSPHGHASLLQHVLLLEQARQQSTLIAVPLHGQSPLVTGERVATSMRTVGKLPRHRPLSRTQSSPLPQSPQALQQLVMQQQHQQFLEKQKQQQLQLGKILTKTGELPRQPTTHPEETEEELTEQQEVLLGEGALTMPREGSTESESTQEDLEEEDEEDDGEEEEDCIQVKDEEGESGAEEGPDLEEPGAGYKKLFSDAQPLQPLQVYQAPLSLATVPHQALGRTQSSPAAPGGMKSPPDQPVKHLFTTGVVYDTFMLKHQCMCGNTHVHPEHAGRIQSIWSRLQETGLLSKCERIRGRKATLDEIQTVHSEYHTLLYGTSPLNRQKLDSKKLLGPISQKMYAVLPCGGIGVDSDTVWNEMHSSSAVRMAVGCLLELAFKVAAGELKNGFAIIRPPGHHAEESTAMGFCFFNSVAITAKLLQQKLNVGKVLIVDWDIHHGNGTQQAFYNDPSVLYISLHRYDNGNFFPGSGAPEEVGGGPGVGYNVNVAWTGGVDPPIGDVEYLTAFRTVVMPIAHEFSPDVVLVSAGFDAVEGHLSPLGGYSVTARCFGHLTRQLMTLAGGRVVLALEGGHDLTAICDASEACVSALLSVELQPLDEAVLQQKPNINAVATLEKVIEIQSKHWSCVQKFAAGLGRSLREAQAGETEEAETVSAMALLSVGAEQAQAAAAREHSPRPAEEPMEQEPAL
T1 sequence (Q92769 whole entry): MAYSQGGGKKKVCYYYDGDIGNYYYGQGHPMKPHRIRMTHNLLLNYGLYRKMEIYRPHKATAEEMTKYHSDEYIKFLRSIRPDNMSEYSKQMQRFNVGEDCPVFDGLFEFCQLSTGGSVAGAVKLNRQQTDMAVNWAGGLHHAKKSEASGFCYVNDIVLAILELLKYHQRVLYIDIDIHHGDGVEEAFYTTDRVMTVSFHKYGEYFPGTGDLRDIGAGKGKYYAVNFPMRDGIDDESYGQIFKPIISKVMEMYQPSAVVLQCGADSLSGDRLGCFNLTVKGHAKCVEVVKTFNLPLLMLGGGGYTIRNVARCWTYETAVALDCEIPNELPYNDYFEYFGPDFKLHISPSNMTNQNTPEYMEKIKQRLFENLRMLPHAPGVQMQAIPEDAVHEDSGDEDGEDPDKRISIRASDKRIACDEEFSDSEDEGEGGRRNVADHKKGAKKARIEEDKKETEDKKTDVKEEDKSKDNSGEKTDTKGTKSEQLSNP
T4 sequence (Q8WUI4 whole entry): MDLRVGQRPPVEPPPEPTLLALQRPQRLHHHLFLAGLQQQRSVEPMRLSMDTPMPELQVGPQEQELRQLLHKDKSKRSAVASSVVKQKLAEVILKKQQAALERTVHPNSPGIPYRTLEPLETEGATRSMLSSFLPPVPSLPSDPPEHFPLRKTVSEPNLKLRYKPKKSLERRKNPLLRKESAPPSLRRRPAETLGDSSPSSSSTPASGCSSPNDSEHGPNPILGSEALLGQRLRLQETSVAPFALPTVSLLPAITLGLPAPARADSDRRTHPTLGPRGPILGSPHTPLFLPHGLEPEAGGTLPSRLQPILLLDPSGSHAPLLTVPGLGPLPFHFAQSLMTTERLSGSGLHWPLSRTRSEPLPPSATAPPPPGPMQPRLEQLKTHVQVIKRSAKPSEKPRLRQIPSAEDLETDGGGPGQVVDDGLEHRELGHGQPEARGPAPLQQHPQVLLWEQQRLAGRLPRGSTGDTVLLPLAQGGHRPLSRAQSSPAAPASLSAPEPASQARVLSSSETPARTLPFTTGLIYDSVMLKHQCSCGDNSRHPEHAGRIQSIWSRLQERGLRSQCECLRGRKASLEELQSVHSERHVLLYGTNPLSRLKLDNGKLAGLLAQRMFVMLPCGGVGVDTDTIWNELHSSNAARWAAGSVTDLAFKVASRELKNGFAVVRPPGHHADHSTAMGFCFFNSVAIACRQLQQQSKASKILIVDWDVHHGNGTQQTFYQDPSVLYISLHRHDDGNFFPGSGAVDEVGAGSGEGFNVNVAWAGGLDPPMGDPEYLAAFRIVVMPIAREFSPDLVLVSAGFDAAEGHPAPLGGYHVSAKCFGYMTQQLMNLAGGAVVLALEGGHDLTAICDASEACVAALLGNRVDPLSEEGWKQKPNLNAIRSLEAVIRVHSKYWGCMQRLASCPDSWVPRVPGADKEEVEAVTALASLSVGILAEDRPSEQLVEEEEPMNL

For CC[C@H](C(=O)Nc1ncc(C(=O)NO)s1)c1ccc(OC)cc1 [#1a, (S)—N-hydroxy-2-(2-(4-methoxyphenyl)butanamido)thiazole-5-carboxamide], the “Fold (1b/1a)” value (HDAC2; ratio of IC50, HDAC2) was 6.9, the IC50 (HDAC3) was less than 0.56 nM and the “Fold (1b/1a)” value (HDAC3; ratio of IC50, HDAC3) was 4.6. For the same compound, the “Fold (1b/1a)” value (HDAC5; ratio of IC50, HDAC5) was 1.4, the “Fold (1b/1a)” value (HDAC7; ratio of IC50, HDAC7) was 3.4 and the IC50 (A2780cp) was 62 nM. The “#1/#1a” value (A2780cp; ratio of IC50, A2780cp) was 1.89, the “#1b/#1a” value (A2780cp; ratio of IC50, A2780cp) was 6.1 and the IC50 (A2780) was 32 nM. For the same compound, the “#1/#1a” value (A2780; ratio of IC50, A2780) was 1.5, the “#1b/#1a” value (A2780; ratio of IC50, A2780) was 6.84 and the IC50 (BIN-67) was 51 nM. The “#1/#1a” value (BIN-67; ratio of IC50, BIN-67) was 1.33, the “#1b/#1a” value (BIN-67; ratio of IC50, BIN-67) was 8.82 and the IC50 (COV434) was 35 nM. The “#1b/#1a” value (COV434; ratio of IC50, COV434) was 9.69, the IC50 (IGROV-1) was 54 nM and the “#1/#1a” value (IGROV-1; ratio of IC50, IGROV-1) was 1.44. The “#1b/#1a” value (IGROV-1; ratio of IC50, IGROV-1) was 9.07, the IC50 (OVCAR-3) was 39 nM and the “#1/#1a” value (OVCAR-3; ratio of IC50, OVCAR-3) was 1.67. The “#1b/#1a” value (OVCAR-3; ratio of IC50, OVCAR-3) was 6.26, the IC50 (OVCAR-8) was 21 nM and the “#1/#1a” value (OVCAR-8; ratio of IC50, OVCAR-8) was 1.71. For the same compound, the “#1b/#1a” value (OVCAR-8; ratio of IC50, OVCAR-8) was 5.38, the IC50 (SCCOHT-1) was 293 nM and the “#1/#1a” value (SCCOHT-1; ratio of IC50, SCCOHT-1) was 1.16. For the same compound, the “#1b/#1a” value (SCCOHT-1; ratio of IC50, SCCOHT-1) was 0.63, the IC50 (SKOV-3) was 63 nM and the “#1/#1a” value (SKOV-3; ratio of IC50, SKOV-3) was 1.79. The “#1b/#1a” value (SKOV-3; ratio of IC50, SKOV-3) was 8.08, the IC50 (ASPC-1) was 112 nM and the “#1/#1a” value (ASPC-1; ratio of IC50, ASPC-1) was 1.41. The “#1b/#1a” value (ASPC-1; ratio of IC50, ASPC-1) was 7.26, the IC50 (4T1) was 23 nM and the “#1/#1a” value (4T1; ratio of IC50, 4T1) was 1.57. For the same compound, the “#1b/#1a” value (4T1; ratio of IC50, 4T1) was 8.04, the IC50 (CT26) was 465 nM and the “#1/#1a” value (CT26; ratio of IC50, CT26) was 2.83. For the same compound, the “#1b/#1a” value (CT26; ratio of IC50, CT26) was 6.91, the IC50 (GL261) was 132 nM and the “#1/#1a” value (GL261; ratio of IC50, GL261) was 2.82. The “#1b/#1a” value (GL261; ratio of IC50, GL261) was 9.11, the IC50 (L1210) was 38 nM and the “#1/#1a” value (L1210; ratio of IC50, L1210) was 1.55. For the same compound, the “#1b/#1a” value (L1210; ratio of IC50, L1210) was 8.53, the IC50 (MC38) was 58 nM and the “#1/#1a” value (MC38; ratio of IC50, MC38) was 2.21. The “#1b/#1a” value (MC38; ratio of IC50, MC38) was 8.5, the “AUC % Extrap” value [1, 2] was 0.20% and the CI/Fobs [1, 2] was 156 mL/min/kg. The “AUC % Extrap” value ([1]; PO-5 mg/kg) was 1.93%, the CI/Fobs ([1]; PO-5 mg/kg) was 1122 mL/min/kg and the “AUC % Extrap” value [1, 3] was 1.93%. The CI/Fobs [1, 3] was 1122 mL/min/kg, the “AUC % Extrap” value [1, 4] was 0.85% and the CI/Fobs [1, 4] was 240.3 mL/min/kg. The AUC(0-inf) [1, 2] was 107 ng·h/mL, the AUC(0-t) [1, 2] was 106 ng·h/mL and the Cmax [1, 2] was 131 ng/mL. The Tmax [1, 2] was 15 min, the half-life [1, 2] was 55.8 min and the AUC(0-inf) ([1]; PO-5 mg/kg) was 74.3 ng·h/mL. The AUC(0-t) ([1]; PO-5 mg/kg) was 72.8 ng·h/mL, the Cmax ([1]; PO-5 mg/kg) was 28.7 ng/mL and the Tmax ([1]; PO-5 mg/kg) was 30 min. It also gave a bioavailability ([1]; PO-5 mg/kg) of 13.9%, a half-life ([1]; PO-5 mg/kg) of 332 min and a Vd/F ([1]; PO-5 mg/kg) of 537 L/kg. It also gave an AUC(0-inf) [1, 4] of 347 ng·h/mL, an AUC(0-t) [1, 4] of 344 ng·h/mL and a Cmax [1, 4] of 252 ng/mL. For the same compound, the Tmax [1, 4] was 15 min, the bioavailability [1, 4] was 65.1% and the half-life [1, 4] was 73.2 min. For the same compound, the Vd/F [1, 4] was 25.3 L/kg.
With CC[C@@H](C(=O)Nc1ncc(C(=O)NO)s1)c1ccc(OC)cc1 [#1b, (R)—N-hydroxy-2-(2-(4-methoxyphenyl)butanamido)thiazole-5-carboxamide] the IC50 (HDAC2; HDAC2) was 36.5 nM, the IC50 (HDAC3) was 2.6 nM and the IC50 (HDAC5; HDAC5) was 100 nM. It also gave an IC50 (HDAC7; HDAC7) of 118 nM, an IC50 (A2780cp) of 378 nM and an IC50 (A2780) of 219 nM. The IC50 (BIN-67) was 450 nM, the IC50 (COV434) was 339 nM and the IC50 (IGROV-1) was 490 nM. For the same compound, the IC50 (OVCAR-3) was 244 nM, the IC50 (OVCAR-8) was 113 nM and the IC50 (SCCOHT-1) was 185 nM. For the same compound, the IC50 (SKOV-3) was 509 nM, the IC50 (ASPC-1) was 813 nM and the IC50 (4T1) was 185 nM. The IC50 (CT26) was 3210 nM, the IC50 (GL261) was 1200 nM and the IC50 (L1210) was 324 nM. The IC50 (MC38) was 493 nM, the “AUC % Extrap” value ([1]; PO-5 mg/kg) was 1.02% and the CI/Fobs ([1]; PO-5 mg/kg) was 912 mL/min/kg. It also gave an AUC(0-inf) ([1]; PO-5 mg/kg) of 91.4 ng·h/mL, an AUC(0-t) ([1]; PO-5 mg/kg) of 90.4 ng·h/mL and a Cmax ([1]; PO-5 mg/kg) of 20.9 ng/mL. It also gave a Tmax ([1]; PO-5 mg/kg) of 60 min, a bioavailability ([1]; PO-5 mg/kg) of 16.2% and a half-life ([1]; PO-5 mg/kg) of 216 min. It also gave a Vd/F ([1]; PO-5 mg/kg) of 284 L/kg.
